This is an account of results in patent US20080146555A1, “Uses of Kinase Inhibitors and Compositions Thereof” (GPC Biotech, Inc, priority 2004, published 2008).

Structures can show the parent of a compound that is named as a salt. Where two headings read alike, the source gives them in different places.

Data set [1] deals with Rb phosphorylation at Serine-780. The data set is described as follows: Rb phosphorylation. The data set is classed as cell-based.
Another data set addresses T1, Casein Kinase 1 (yeast) (Schizosaccharomyces pombe, UniProt P40233).
T1 construct: purchased Upstate 14-112
Briefly: CK1-Yeast kinase assay (A37 assay). It counts as biochemical, S. pombe. How it is done: • 1. Assay Dilution Buffer I (ADBI, Catalog #20-108): 20 mM MOPS, pH 7.2, 25 mM β-glycerol • phosphate, 5 mM EGTA, 1 mM sodium orthovanadate, 1 mM dithiothreitol. • 2. Casein Kinase 1, active: Dilute to 10-50 ng/μl. Use 10 μl (100-500 ng) per assay point. • 3. Casein Kinase 1 Substrate Peptide (Catalog #12-423): Prepare a 1 mM sock in ADBI. Use 10 μl per assay for a final concentration of 250 μM per assay point. • 4. [γ-^32P]ATP: Stock 1 mCi/100 μl (3000 Ci/mmol, obtained from Perkin Elmer, Cat. # BLU002A). Make 10 μl aliquots (100 μCi/vial). Before starting the assay, dilute an aliquot with 90 μl of 500 μM cold ATP and 75 mM magnesium chloride in ADBI.
• 1. Add 10 μl of ADBI to a microcentrifuge tube. • 2. Add 10 μl of Casein Kinase 1, active (100-500 ng). • 3. Add 10 μl (250 μM) Casein Kinase 1 Substrate Peptide. • 4. Add 10 μl of diluted [γ-^32P]ATP mixture. • 5. Incubate for 10 minutes at in a shaking incubator at 30° C. • 6. Transfer 25 μl onto the center of a 2 cm×2 cm P81 paper. • 7. Wash the assay squares three times with 0.75% phosphoric acid. • 8. Wash the assay squares once with acetone. • 9. Transfer the assay squares to a scintillation vial and add 5 ml scintillation cocktail. • 10. Read in scintillation counter. Compare cpm of enzyme samples to cpm of control samples that contain no enzyme (background control).

Another data set has as its target T2, Fyn (Homo sapiens, UniProt P06241).
T2 construct: purchased Upstate 14-441
The data set is described as follows: Fyn kinase assay. The data set is classed as biochemical. How it is done: • 1. Assay Buffer: 200 mM Tris-HCl pH 7.5, 0.4 mM EGTA, 0.4 mM sodium orthovanadate. • 2. Magnesium/ATP Cocktail (Catalog #20-113): 500 μM cold ATP and 75 mM magnesium chloride in 20 mM MOPS, pH 7.2, 25 mM α-glycerol phosphate, 5 mM EGTA, 1 mM sodium orthovanadate, 1 mM dithiothreitol. • 3. [γ-^32P]ATP: Stock 1 mCi/100 μl (3000 Ci/mmol, obtained from DuPont-NEN). Make 10 μl aliquots (100 μCi/vial). Before starting the assay, dilute an aliquot with 90 μl of Magnesium/ATP Cocktail. • 4. Enzyme Dilution Buffer: 20 mM MOPS pH 7.5, 1 mM EDTA, 0.01% Brij-35, 5% glycerol, 0.1% β-mercaptoethanol, 1 mg/ml BSA. • 5. Fyn: Dilute with Enzyme Dilution Buffer to prepare a 4 ng-40 ng/μl stock. Use 2.5 μl per assay point. • 6. Src Substrate Peptide (Catalog #12-140): Dilute to 2.5 mM with distilled water. Use 2.5 μl per say point.
• 1. Add 6.25 μl of Assay Buffer per assay. • 2. Add 2.5 μl of diluted Fyn. • 3. Add 2.5 μl Src Substrate peptide (250 μM). • 4. Add 3.75 μl distilled water. • 5. Add 10 μl of the [γ-^32P]ATP solution. • 6. Incubate for 10 minutes at 30° C. • 7. Transfer a 20 μl aliquot onto the center of a 2 cm×2 cm P81 paper. • 8. Wash assay squares three times with 0.75% phosphoric acid for 5 minutes per wash. • 9. Wash assay squares once with acetone for 1-2 minutes. • 10. Transfer assay squares to a scintillation vial and add 1 ml scintillation cocktail. • 11. Read in scintillation counter. Compare cpm of enzyme samples to cpm of control samples that contain no enzyme (background control).

A further data set in a line: Solution stability. It counts as physicochemical. The conditions noted are these: pH6, room temperature, kept in dark.
The next data set relates to HT29/mit. The data set is described as follows: SRB cytotoxicity, mitoxanthrone resistant cells. The data set is classed as cell-based, human. How it is done:
(§1) In these experiments, the P-glycoprotein expressing NCI-Adr resistant subline (Vickers et al., 1989. Mol Endocrinology 3 (1):157-164) was used. […] Briefly, cells were plated in 96 well dishes 24 hours prior to compound addition. Where noted, they were exposed to verapamil for 4 hours prior to compound addition and then throughout the treatment period (72 hours). The assay was terminated with the addition of cold TCA to a final concentration of 10% and the plates were incubated for one hour at 4° C. The plates were then washed 5 times with water and 100 μl of a Sulforhodamine B solution (4%) was added to each well. The plate was then incubated for 10 minutes at room temperature before removal of unbound dye by washing with 1% acetic acid. The bound dye was solubilized with 10 mM Trizma base and the absorbance read at OD570.
(§2) The parental non-mutated cell line HT29 was used as a control.
(§3) Z. Cytotoxicity was measured using the SRB assay according to Shekan et al. as described above in Example 1A.

For the next data set, the system named is HT29. Briefly: SRB cytotoxicity, HT29 parental cells. The conditions noted are these: Homo sapiens, HT-29, 72 h. It counts as cell-based. How it is done: as §1, with “acid.” for “acid. The bound dye was solubilized with 10 mM Trizma base and the absorbance read at OD570.”
as §2, §3

The nature of data set [2]: Maximum tolerated dose in mice. The conditions noted are these: mouse, in vivo, intravenous. How it is done: Determination of maximum tolerated dose (MTD). Mice at 8 weeks of age were pair-matched into groups of 5-8 animals and preliminary toxicity studies were performed with unknown test compounds. Animals were treated i.v. daily for 10 consecutive days with test compound and were weighed twice weekly. Mice were examined frequently for clinical signs of any adverse drug-related effects. Acceptable toxicity for anti-cancer drugs in mice is defined by the NCl as no mean group weight loss of over 20% and not more than 10% toxic death in treated animals.

Setting [3] is: read-out: FYN Inhibition (IC50).

T2 sequence (P06241 whole entry): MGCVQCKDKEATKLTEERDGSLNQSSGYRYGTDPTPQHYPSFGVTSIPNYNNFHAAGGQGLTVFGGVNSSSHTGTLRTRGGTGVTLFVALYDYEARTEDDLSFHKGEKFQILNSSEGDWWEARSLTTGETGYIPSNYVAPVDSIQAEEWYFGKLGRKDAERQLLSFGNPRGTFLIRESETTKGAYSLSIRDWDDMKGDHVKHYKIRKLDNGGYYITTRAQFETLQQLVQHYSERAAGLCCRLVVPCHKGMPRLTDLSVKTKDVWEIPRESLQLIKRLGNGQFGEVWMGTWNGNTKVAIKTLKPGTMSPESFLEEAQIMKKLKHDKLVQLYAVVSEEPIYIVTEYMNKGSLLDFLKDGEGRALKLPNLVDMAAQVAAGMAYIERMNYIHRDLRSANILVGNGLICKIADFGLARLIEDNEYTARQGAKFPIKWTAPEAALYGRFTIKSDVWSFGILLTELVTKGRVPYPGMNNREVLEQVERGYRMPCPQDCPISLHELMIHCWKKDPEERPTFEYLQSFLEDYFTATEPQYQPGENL
T1 sequence (P40233 1-298 limits assumed): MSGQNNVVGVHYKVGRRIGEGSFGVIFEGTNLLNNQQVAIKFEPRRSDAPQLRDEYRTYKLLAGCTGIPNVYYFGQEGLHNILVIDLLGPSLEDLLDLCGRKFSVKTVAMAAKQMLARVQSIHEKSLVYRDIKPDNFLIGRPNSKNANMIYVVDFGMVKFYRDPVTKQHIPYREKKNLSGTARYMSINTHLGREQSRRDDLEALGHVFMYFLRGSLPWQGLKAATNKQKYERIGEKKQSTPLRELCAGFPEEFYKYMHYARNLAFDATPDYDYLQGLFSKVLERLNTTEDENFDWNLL

On to `CC(C)N1CCN(C(=O)COc2ccc(-c3n[nH]c4c3C(=O)c3c(NC(=O)NN5CCOCC5)cccc3-4)cc2)CC1` [Compound A37], for which the “Rb phosphorylation at Serine-780” value in data set [1] is recorded as “inhibits Rb phosphorylation at Serine-780”. Further, the IC50 was below 3 nM against Casein Kinase 1 (yeast) (CK1 IC50 (A37), kinase panel, 10 μM ATP); below 5 nM at Casein Kinase 1 (yeast) (CSNK1A1 (CK1) Inhibition (IC50), A37, S. pombe CK1 (*)); below 100 nM at Fyn (setting [3]). The same compound returned a Solution stability in “Solution stability” above 1 mo.

Take `COCCN1CCN(Cc2ccc(-c3n[nH]c4c3C(=O)c3c(NC(=O)NN5CCOCC5)cccc3-4)cc2)CC1` [Compound B16, N-[3-(4-{[4-(2-methoxyethyl)piperazinyl]methyl}phenyl)-4-oxoindeno[2,3-d]pyrazol-5-yl](morpholin-4-ylamino)carboxamide dihydrochloride]: the “RR (relative resistance) HT29/mit vs HT29” value in the data set with HT29/mit came to 22.1. The IC50 in the data set with HT29/mit (Homo sapiens, HT-29, 72 h, SRB) is 1700 nM; in the data set on HT29, 77 nM; at Fyn (kinase panel, 10 μM ATP, read-out: Fyn IC50), below 100 nM; on Fyn (setting [3]) it was below 50 nM. Besides, the MTD in data set [2] (CD-1 mice, read-out: MTD, 5/2/5 dose) was 40 mg/kg; in data set [2] (nu/nu mice, read-out: MTD, single dose) it was around 120 mg/kg. Further, the MTD at 5 days in data set [2] (nu/nu mice) was around 100 mg/kg.

In general, IC50 refers to the concentration needed to halve the response being measured.
